Data published in publication PMC11713942 (Therapeutic Advances in Infectious Disease, 2025).

Key:
[1] = Protocol: The monocentric, prospective, cohort study was approved by the local ethics committee. […] All participants signed an informed consent form before the initiation of treatment and data/biological samples collection. […] Due to the COVID-19 pandemic, we could not completely fulfil the study design, and patients were treated with either 8–10 mg/kg (group A) or 11–12 mg/kg (group B), as per routine clinical treatment. […] Microbiological failure was defined by persistent or breakthrough infection during IE treatment.
The occurrence of CK elevation above the normal value (>170 mU/mL) and eosinophilic pneumonia was evaluated.

[2] = cited from earlier work
[3] = system: Staphylococcus spp. infective endocarditis; test: Microbiological and clinical response of Staphylococcus spp. infective endocarditis; assay type: in vivo, human; details: all patients, both dose groups
Protocol: The monocentric, prospective, cohort study was approved by the local ethics committee. […] All participants signed an informed consent form before the initiation of treatment and data/biological samples collection. […] Due to the COVID-19 pandemic, we could not completely fulfil the study design, and patients were treated with either 8–10 mg/kg (group A) or 11–12 mg/kg (group B), as per routine clinical treatment. In six patients, PK data relative to both doses are available, as per the initial protocol. […] Microbiological failure was defined by persistent or breakthrough infection during IE treatment.

clinical = details: human, in vivo; for half-life: Daptomycin t1/2 (elimination half-life), IV, 0.693/kel, median (IQR)
Protocol: Tubes were centrifuged at 10,400 rpm for at least 10 min at room temperature; separated plasma was then dispensed into polypropylene-labelled tubes and stored at −80°C until the bioanalysis was carried out. […] QcH (80 µg/mL), QcM (40 µg/mL) and QcL (4 µg/mL), by serial dilution in plasma. […] Just before the analysis, patient plasma samples were thawed, and calibrators and quality controls were prepared fresh in the same matrix. Each sample was processed by protein precipitation: 50 µL of plasma was prepared in pre-labelled Eppendorf tubes®. […] In total, 200 µL of the supernatant was transferred to HPLC vials, and 5 µL was injected into the chromatographic column. The HPLC system used was a Thermo Scientific quaternary pump® (Accela pump; Thermo Fisher Scientific, San Francisco, CA, USA) interfaced with an autosampler (Accela autosampler). […] From 3.10 to 4.50 min, the column was again equilibrated to the initial conditions. […] Xcalibur 2.07 and Lcquan2.5.6 software from Thermo Scientific (San Jose, CA, USA) were utilized for the LC-MS/MS system control, data acquisition and data analysis. Calibration curves were generated using weighted (1/x^2) linear regression curves.

[4] = multilevel linear mixed model
Excerpt: In any complex structure, we can identify atomic units (in this case curves) and higher level unit (in this case patients). Treating patients as a random effect will correct standard errors and furnish an estimate of between-group variance. Introducing some covariate in a fixed part of the models helps to explain and so reduce unexplained between-group variance. Results are expressed as beta coefficient with their 95% confidence interval (95% CI) and presented with term-specific p values; the beta coefficient represents the mean variation of outcomes for unit change of quantitative predictors or between levels of categorical or ordinal predictors.
AUC0–24 determined on the fifth day of treatment, when the steady-state conditions were achieved, were calculated and compared between the two different groups of patients.

## CCCCCCCCCC(=O)N[C@@H](Cc1c[nH]c2ccccc12)C(=O)N[C@H](CC(N)=O)C(=O)N[C@@H](CC(=O)O)C(=O)N[C@@H]1C(=O)NCC(=O)N[C@@H](CCCN)C(=O)N[C@@H](CC(=O)O)C(=O)N[C@H](C)C(=O)N[C@@H](CC(=O)O)C(=O)NCC(=O)N[C@H](CO)C(=O)N[C@@H]([C@H](C)CC(=O)O)C(=O)N[C@@H](CC(=O)c2ccccc2N)C(=O)O[C@@H]1C [Daptomycin, daptomycin]
[1]; 8–12 mg/kg daily
  Eosinophilic pneumonia during treatment: none of the patients
[1]; in vivo
  CK increase during treatment: none of the patients
[2]
  Increase of systemic exposure in elderly individuals (>75 years) compared with younger (18–30 years): 58%
Staphylococcus spp.
  MIC: < 0.5 µg/mL
[3]
  Breakthrough infections while on treatment: without evidence of breakthrough infections
  Microbiologic response: All patients displayed a microbiologic response
  Survival at 30 days: All patients were alive
clinical
  Dose linearity of pharmacokinetics: linear daptomycin pharmacokinetics
clinical; iv, Daptomycin CL
  clearance: 8.17 mL/min
clinical; iv, group A 8–10 mg/kg daily, 15 patients
  half-life: 16.9 h
clinical; iv, group B 11–12 mg/kg daily, 14 patients
  half-life: 15.1 h
[4]
  Effect of gender on AUC0–24: gender did not affect the results
[4]; 95% CI 64–483, p = 0.010
  Beta coefficient, association of AUC0–24 with dose group: 274
